Entries after “also recorded” stand apart in the source; their conditions may differ.
What was measured:
[1] = biological target: T1, α-glucosidase from Saccharomyces cerevisiae (Saccharomyces cerevisiae, UniProt P53341); experiment: biochemical; assay type: biochemical; conditions: for inhibition at 15000 µM: read-out: Inhibitory Activity of Test Compounds at a Concentration of 15 mM Against the α-Glucosidase Enzyme (%); for Inhibitory Activity of Test Compounds at a Concentration of 15 mM Against the α-Glucosidase Enzyme (%) / IC50 (mM): mean ± standard error of the mean; for Inhibitory Activity of Test Compounds at a Concentration of 15 mM Against the α-Glucosidase Enzyme (%): triplets; for IC50 (mM): from graph of enzyme activity vs concentration
T1 construct: purchased Sigma-Aldrich
Experimental: Antidiabetic activity was assessed by the degree of the inhibition of α-glucosidase activity by the test substances.
The study of the α-glucosidase activity inhibition degree by the test compounds was performed using a standard method with minor modifications.
Antidiabetic activity was assessed by the degree of inhibition of α-glucosidase activity by the test substances. The α-glucosidase enzyme determines the extent to which glucose enters the bloodstream from the gastrointestinal tract. […] The enzyme (α-glucosidase from Saccharomyces cerevisiae, Sigma-Aldrich, St. Louis, MO, USA, 1.0 U/mL) in phosphate-buffered saline was incubated with various concentrations of test compounds at 37 °C for 15 min. All the studied substances were dissolved in 40% DMSO. Then, 5 mM p-nitrophenyl α-d-glucopyranoside was added to the mixture as a substrate. The mixture was incubated at […] for 20 min. The absorbance was measured spectrophotometrically at 405 nm. The sample solution was replaced by 40% DMSO as a control. […] All samples were studied in triplets.
Inhibitory activity was expressed as a percentage (%) according to the degree of inhibition of α-glucosidase in comparison with the negative control. It was calculated using the following formula:
Inhibitory activity (%) = (1 − As/Ac) × 100%, where As is the optical density of the test compound, and Ac is the optical density of control.
The IC50 was determined from the graph of enzyme activity changes depending on the sample concentration.
The statistical processing of the results was carried out using the “Excel 2019” program.

glucose-6-phosphatase = tested on: glucose-6-phosphatase; set-up: method as in PMID 33304132; conditions: Swiss albino mice, cited from earlier work

T1 sequence (P53341 whole entry): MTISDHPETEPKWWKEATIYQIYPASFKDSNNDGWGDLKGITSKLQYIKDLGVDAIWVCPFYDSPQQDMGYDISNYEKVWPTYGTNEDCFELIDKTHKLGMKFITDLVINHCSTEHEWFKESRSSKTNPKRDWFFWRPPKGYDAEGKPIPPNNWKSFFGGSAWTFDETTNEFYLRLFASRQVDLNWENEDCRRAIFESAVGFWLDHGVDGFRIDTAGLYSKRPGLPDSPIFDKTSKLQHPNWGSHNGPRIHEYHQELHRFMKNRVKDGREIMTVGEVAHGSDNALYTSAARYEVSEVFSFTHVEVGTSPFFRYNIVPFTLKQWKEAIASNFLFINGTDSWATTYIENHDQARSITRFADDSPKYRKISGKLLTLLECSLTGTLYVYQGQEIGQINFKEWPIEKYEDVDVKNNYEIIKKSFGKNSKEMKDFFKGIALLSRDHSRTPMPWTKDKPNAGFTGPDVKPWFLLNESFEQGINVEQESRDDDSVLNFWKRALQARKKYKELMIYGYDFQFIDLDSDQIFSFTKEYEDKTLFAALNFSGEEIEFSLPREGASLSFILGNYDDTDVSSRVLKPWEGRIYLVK

Row | Compound | inhibition at 15000 µM [1] | inhibition of the enzyme glucose-6-phosphatase (glucose-6-phosphatase; streptozotocin diabetes) | safety for use in animals (glucose-6-phosphatase) | IC50 [1] | melting point | inhibitory activity against α-glucosidase (in words) [1] | Inhibitory Activity of Test Compounds at a Concentration of 15 mM Against the α-Glucosidase Enzyme (%) [1] | IC50 (mM) [1]
1 | C[C@H]1O[C@H](O[C@H]2[C@H](O)[C@@H](O)[C@@H](O[C@H]3[C@H](O)[C@@H](O)C(O)O[C@@H]3CO)O[C@@H]2CO)[C@H](O)[C@@H](O)[C@@H]1N[C@H]1C=C(CO)[C@@H](O)[C@H](O)[C@H]1O (stereo partly shown) [Acarbose, reference compound] | 46.1 ± 4.6% |  |  |  |  |  |  | 
2 | S=C(NC(c1ccccn1)C(Cc1ccccc1)Cc1ccccc1)NC(c1ccccn1)C(Cc1ccccc1)Cc1ccccc1 (stereo not shown) [Compound 4, 1,3-bis(2-benzyl-3-phenyl-1-(pyridine-2-yl)propyl)thiourea] |  | highest inhibition value | without having any toxic or lethal effects |  |  |  |  | 
3 | C=CCNC(=S)Nc1c(C)cc(C)[nH]c1=O [Compound 8a, 1-allyl-3-(4,6-dimethyl-2-oxo-1,2-dihydropyridin-3-yl)thiourea] | 23.3 ± 1.7% |  |  | 16.6 ± 1.57 mM |  |  |  | 
4 | C=CCNC(=S)Nc1c(-c2ccccc2)cc(C)[nH]c1=O [Compound 8b, 1-allyl-3-(6-methyl-2-oxo-4-phenyl-1,2-dihydropyridin-3-yl)thiourea] | 26.9 ± 2.5% |  |  | 19.8 ± 2.55 mM |  |  |  | 
5 | C=CCNC(=S)Nc1c(-c2cccs2)cc(C)[nH]c1=O [Compound 8c, 1-Allyl-3-(6-methyl-2-oxo-4-(thiophen-2-yl)-1,2-dihydropyridin-3-yl)thiourea] |  |  |  |  | 289 to 292 °C | did not show inhibitory activity; also recorded: showed no inhibitory activity | No activity | No activity
6 | Cc1cc(C)c(NC(=S)Nc2ccccc2)c(=O)[nH]1 [Compound 9a, 1-(4,6-Dimethyl-2-oxo-1,2-dihydropyridin-3-yl)-3-phenylthiourea] | 56.6 ± 2.2% |  |  | 9.77 ± 0.83 mM | 140 to 143 °C |  |  | 
7 | Cc1cc(-c2ccccc2)c(NC(=S)Nc2ccccc2)c(=O)[nH]1 [Compound 9b, 1-(6-Methyl-2-oxo-4-phenyl-1,2-dihydropyridin-3-yl)-3-phenylthiourea] | 35.2 ± 3.4% |  |  | 21.8 ± 2.65 mM | 141 to 144 °C |  |  | 
8 | Cc1cc(-c2cccs2)c(NC(=S)Nc2ccccc2)c(=O)[nH]1 [Compound 9c, 1-(6-Methyl-2-oxo-4-(thiophen-2-yl)-1,2-dihydropyridin-3-yl)-3-phenylthiourea] | 41.2 ± 2.5% |  |  |  | 145 to 147 °C |  |  | 
9 | CC(=O)NC(=S)Nc1c(C)cc(C)[nH]c1=O [Compound 10a, N-((4,6-Dimethyl-2-oxo-1,2-dihydropyridin-3-yl)carbamothioyl)acetamide] |  |  |  |  | 273 to 275 °C | did not show inhibitory activity; also recorded: showed no inhibitory activity | No activity | No activity
10 | CC(=O)NC(=S)Nc1c(-c2ccccc2)cc(C)[nH]c1=O [Compound 10b, N-((6-Methyl-2-oxo-4-phenyl-1,2-dihydropyridin-3-yl)carbamothioyl)acetamide] |  |  |  |  | 249 to 251 °C | did not show inhibitory activity; also recorded: showed no inhibitory activity | No activity | No activity
11 | CC(=O)NC(=S)Nc1c(-c2cccs2)cc(C)[nH]c1=O [Compound 10c, N-((6-Methyl-2-oxo-4-(thiophen-2-yl)-1,2-dihydropyridin-3-yl)carbamothioyl)acetamide] |  |  |  |  | 252 to 254 °C | did not show inhibitory activity; also recorded: showed no inhibitory activity | No activity | No activity
12 | Cc1cc(C)c(NC(=S)NC(=O)c2ccccc2)c(=O)[nH]1 [Compound 11a, N-((4,6-Dimethyl-2-oxo-1,2-dihydropyridin-3-yl)carbamothioyl)benzamide] |  |  |  |  | 230 to 232 °C | did not show inhibitory activity; also recorded: showed no inhibitory activity | No activity | No activity
13 | Cc1cc(-c2ccccc2)c(NC(=S)NC(=O)c2ccccc2)c(=O)[nH]1 [Compound 11b, N-[(6-Methyl-2-oxo-4-phenyl-1,2-dihydropyridin-3-yl)carbamothioyl]benzamide] |  |  |  |  | 218 to 220 °C | did not show inhibitory activity; also recorded: showed no inhibitory activity | No activity | No activity
14 | Cc1cc(-c2cccs2)c(NC(=S)NC(=O)c2ccccc2)c(=O)[nH]1 [Compound 11c, N-((6-Methyl-2-oxo-4-(thiophen-2-yl)-1,2-dihydropyridin-3-yl)carbamothioyl)benzamide] |  |  |  |  | 245 to 249 °C | did not show inhibitory activity; also recorded: showed no inhibitory activity | No activity | No activity
